Counter-ions that a name gives are not always drawn.
Assays:
rats [1] = assay: Catalepsy grid-test (motor side-effects); assay type: in vivo; conditions: for motor-side-effects (catalepsy): sc, doses 1-40 mg/kg
Method: (§1) To document the fact that the compounds cross the blood brain barrier, occupancy at the dopamine D2 receptors using in-vivo occupancy measures was examined in rats. The test compound was injected subcutaneously followed 30 minutes later by an intravenous injection of ^3H-raclopride. The animals were sacrificed 1 hour after drug administration. In animals combining occupancy and catalepsy, rats were tested for catalepsy 10 minutes before sacrifice. Animals were sacrificed by decapitation. Striata and cerebella were rapidly dissected, processed and analyzed as described by Kapur et al. (2000b) Compounds which crossed the blood brain barrier and gave predictable dose-response relationships were then tested to see if they gave catalepsy. Catalepsy is the time-honoured animal model to predict the propensity of compounds to give rise to extrapyramidal side-effects in humans. Catalepsy was measured using a grid-test by a rater blind to the treatment-assignment. The time that animals remained immobile was used as an index of catalepsy by transforming raw-scores into catalepsy scores, with a score of 1 as questionable catalepsy and scores of 2-5 reflecting severity of catalepsy (Ahlenius S et al. 1986).

dopamine D2 receptor = dopamine D2 receptor (Homo sapiens, UniProt P14416); assay: Binding affinity for dopamine D2 receptor, 3H-raclopride as ligand (Seeman 1993)
dopamine D2 receptor, sequence (P14416 whole entry, species assumed): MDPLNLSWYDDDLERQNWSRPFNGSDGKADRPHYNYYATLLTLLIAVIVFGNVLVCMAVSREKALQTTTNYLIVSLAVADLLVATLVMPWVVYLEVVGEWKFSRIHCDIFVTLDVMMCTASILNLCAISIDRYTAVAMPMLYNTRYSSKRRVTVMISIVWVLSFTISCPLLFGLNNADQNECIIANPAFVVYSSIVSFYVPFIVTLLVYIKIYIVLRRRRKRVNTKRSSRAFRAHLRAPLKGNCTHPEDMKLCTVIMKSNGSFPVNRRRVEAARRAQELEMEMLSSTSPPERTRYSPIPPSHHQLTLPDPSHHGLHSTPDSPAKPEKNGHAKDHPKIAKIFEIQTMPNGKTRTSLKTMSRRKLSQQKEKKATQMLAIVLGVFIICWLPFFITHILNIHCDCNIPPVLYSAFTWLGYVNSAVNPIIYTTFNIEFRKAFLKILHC
Description: As will be appreciated by those skilled in the art, Ki values depend on the method of measurement, pH, radiolabeling technique, tissue type, temperature and type of wash used.

FOS protein = assay: FOS immunohistochemistry; assay type: in vivo; conditions: rats, two hours after injection; for FOS protein induction in the nucleus accumbens: shell of nucleus accumbens
Method: In particular, all antipsychotics induce FOS in the nucleus accumbens regions while those likely to give rise to motor side-effects also induce FOS in the dorsolateral striatum (Robertson et al. 1994). For examining the distribution of FOS protein by the test compound, the test compound was injected into rats and two hours later, the animals were deeply anaesthetized with sodium phenobarbitol (100 mg/kg i.p.) and perfused transcardially, the brains removed and post-fixed. Immunostaining was performed on free-floating forty-micron sections with a rabbit-raised polyclonal primary anti-FOS antiserum (diluted 1:250 and incubated 48 hours at 4° C.) (4-17 aminoacids of human Fos; Oncogene Research Products, Cambridge, Mass., USA). Exposure to a biotinylated goat anti-rabbit secondary antibody (1:600, Vector Laboratories, Burlingame, Calif., USA) followed by incubation with horseradish peroxidase avidin-biotin complex (Vector Laboratories, Vector Laboratories, Burlingame, Calif., USA) was used to visualize the FOS staining. Fos-immunoreactive nuclei were counted within 400×400 μm grid at a magnification of 100× in the shell of nucleus accumbens and dorsolateral striatum.

rats [2] = assay: Conditioned avoidance response (CAR), two-way active avoidance shuttlebox; assay type: in vivo
Method: Therefore the new compounds were tested for activity in this model. For conditioned avoidance-response, rats were trained and tested in a computer assisted two-way active avoidance (shuttlebox), with an 80 dB white-noise as a conditioned stimulus, followed ten seconds later by a 0.6 mA shock as the unconditioned stimulus. Details of the procedure have been described elsewhere (Wadenberg M L et al. 2000).

dopamine D2 receptors = target: T1, dopamine D2 receptors (Rattus norvegicus, UniProt P61169); assay: In-vivo D2 receptor occupancy with 3H-raclopride; conditions: rats; for ED50: rat, sc in acidified saline; for D2 occupancy: dose 1-40 mg/kg/sc in acidified saline, sacrifice 1 hour after drug
T1 construct: Striata and cerebella were rapidly dissected, processed and analyzed as described by Kapur et al. (2000b); from tissue; host or cells: rat brain in vivo (striatum; cerebellum also dissected)
T1 sequence (P61169 whole entry): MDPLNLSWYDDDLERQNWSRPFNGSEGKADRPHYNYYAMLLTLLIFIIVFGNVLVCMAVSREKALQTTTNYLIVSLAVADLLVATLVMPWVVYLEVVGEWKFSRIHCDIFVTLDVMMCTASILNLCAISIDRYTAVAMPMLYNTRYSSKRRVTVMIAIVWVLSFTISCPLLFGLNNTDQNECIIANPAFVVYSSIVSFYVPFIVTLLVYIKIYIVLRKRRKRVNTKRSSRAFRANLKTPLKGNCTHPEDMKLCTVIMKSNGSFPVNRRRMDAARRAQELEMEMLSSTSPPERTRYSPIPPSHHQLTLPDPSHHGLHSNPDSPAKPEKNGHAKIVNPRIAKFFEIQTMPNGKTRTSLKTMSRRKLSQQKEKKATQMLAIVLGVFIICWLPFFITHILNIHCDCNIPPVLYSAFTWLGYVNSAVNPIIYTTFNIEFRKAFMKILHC
Method: as §1

melting point | Ki (dopamine D2 receptor) | SMILES | further results
270 °C (dec.) | – | CC(C)N1CCN(C2=Nc3cc(C(F)(F)F)ccc3Oc3ccccc32)CC1 (as salt: HCl) [Example 4, 8-Trifluoromethyl-11-(4-isopropylpiperazin-1-yl)-dibenzo[b,f][1,4]oxazepine.HCl] | –
240 °C (dec.) | – | CCCCN1CCN(C2=Nc3cc(C(F)(F)F)ccc3Oc3ccccc32)CC1 (as salt: HCl) [Example 5, 8-Trifluoromethyl-11-(4-butylpiperazin-1-yl)-dibenzo[b,f][1,4]oxazepine.HCl] | –
– | – | CN1CCN(C2=Nc3cc(Cl)ccc3Nc3ccccc32)CC1 [Clozapine, reference compound] | catalepsy (rats [1]; doses up to 20 mg/kg/sc): did not give rise to catalepsy
76 to 77 °C | 258 nM | CCN1CCN(C2=Nc3cc(C(F)(F)F)ccc3Oc3ccccc32)CC1 [Example 1, 8-Trifluoromethyl-11-(4-ethylpiperazin-1-yl)-dibenzo[b,f][1,4]oxazepine] | –
110 to 111 °C | 414 nM | OCCN1CCN(C2=Nc3cc(C(F)(F)F)ccc3Oc3ccccc32)CC1 [Example 2, 8-Trifluoromethyl-11-(4-(2′-hydroxyethyl)piperazin-1-yl)-dibenzo[b,f][1,4]oxazepine] | –
– | 215 nM | CC(C)N1CCN(C2=Nc3cc(C(F)(F)F)ccc3Oc3ccccc32)CC1 [Example 4, 8-Trifluoromethyl-11-(4-isopropylpiperazin-1-yl)-dibenzo[b,f][1,4]oxazepine.HCl] | –
– | 250 nM | CCCCN1CCN(C2=Nc3cc(C(F)(F)F)ccc3Oc3ccccc32)CC1 [Example 5, 8-Trifluoromethyl-11-(4-butylpiperazin-1-yl)-dibenzo[b,f][1,4]oxazepine.HCl] | –
– | 42 nM | CCN1CCN(C2=Nc3cc(Cl)ccc3Oc3ccccc32)CC1 [Example 6, 8-Chloro-11-(4-ethylpiperazin-1-yl)-dibenzo[b,F][1,4]oxazepine] | FOS protein induction in the dorsolateral striatum (FOS protein): no induction; FOS protein induction in the nucleus accumbens (FOS protein): robust induction; inhibition at 10 mg/kg (rats [2]; Rattus norvegicus, 10 mg/kg/sc): > 50%; motor-side-effects (catalepsy) (rats [1]): No animals showed any evidence of motor-side-effects; ED50 (dopamine D2 receptors): ~5 mg/kg; D2 occupancy (dopamine D2 receptors): 5-81%
149 to 150 °C | 108 nM | OCCN1CCN(C2=Nc3cc(Cl)ccc3Oc3ccccc32)CC1 [Example 7, 8-Chloro-11-(4-(2′-hydroxyethyl)piperazin-1-yl)-dibenzo[b,f][1,4]oxazepine] | inhibition at 20 mg/kg (rats [2]; Rattus norvegicus, 20 mg/kg/sc): > 50%; motor-side-effects (catalepsy) (rats [1]): No animals showed any evidence of motor-side-effects; ED50 (dopamine D2 receptors): 10 mg/kg; D2 occupancy (dopamine D2 receptors): 22-75%
90 to 91 °C | 23 nM | CCCN1CCN(C2=Nc3cc(Cl)ccc3Oc3ccccc32)CC1 [Example 8, 8-Chloro-11-(4-propylpiperazin-1-yl)-dibenzo[b,f][1,4]oxazepine] | –
55 to 56 °C | 150 nM | CC(C)N1CCN(C2=Nc3cc(Cl)ccc3Oc3ccccc32)CC1 [Example 9, 8-Chloro-11-(4-isopropylpiperazin-1-yl)-dibenzo[b,f][1,4]oxazepine] | –
97 to 98 °C | 28 nM | CCCCN1CCN(C2=Nc3cc(Cl)ccc3Oc3ccccc32)CC1 [Example 10, 8-Chloro-11-(4-butylpiperazin-1-yl)-dibenzo[b,f][1,4]oxazepine] | –
100 to 101 °C | 63 nM | CCN1CCN(C2=Nc3cc(Cl)ccc3Sc3ccccc32)CC1 [Example 12, 8-Chloro-11-(4-ethylpiperazin-1-yl)-dibenzo[b,f][1,4]thiazepine] | –
110 to 111 °C | 88 nM | OCCN1CCN(C2=Nc3cc(Cl)ccc3Sc3ccccc32)CC1 [Example 13, 8-Chloro-11-(4-(2′-hydroxyethyl)piperazin-1-yl)-dibenzo[b,f][1,4]thiazepine] | –
– | 58 nM | CC(C)N1CCN(C2=Nc3cc(Cl)ccc3Sc3ccccc32)CC1 [Example 15, 8-Chloro-11-(4-isopropylpiperazin-1-yl)-dibenzo[b,f][1,4]thiazepine.HCl] | –
– | – | O=C(CCCN1CCC(O)(c2ccc(Cl)cc2)CC1)c1ccc(F)cc1 [haloperidol, reference compound] | FOS protein induction in the dorsolateral striatum (FOS protein): resulted in FOS in the dorsolateral striatum; FOS protein induction in the nucleus accumbens (FOS protein): robust FOS induction; inhibition of avoidance (rats [2]; >0.05 mg/kg/sc, without catalepsy or escape deficits): robust inhibition of avoidance

Reference: US6890919B2, “Atypical antipsychotic agents having low affinity for the D2 receptor” (priority 2001, dated 2005)
